The values that follow come from ChEMBL document CHEMBL5131445, “Optimization of a novel piperazinone series as potent selective peripheral covalent BTK inhibitors” (Bioorg Med Chem Lett, 2022).

By Kd is commonly meant a measure of binding affinity in units of concentration. A word on the fraction unbound: it is the share of the substance not bound to proteins or other matrix. What is called IC50 is the concentration needed to halve the response being measured. Broadly, the clearance is a measure of how efficiently the substance is removed, as volume per time.

The target in series [1] is Receptor tyrosine-protein kinase erbB-2 (Homo sapiens, UniProt P04626). Kind of series: Binding affinity to ERBB2 (unknown origin) assessed as dissociation constant by KINOMEscan analysis.
For series [2], the target named is Receptor tyrosine-protein kinase erbB-4 (Homo sapiens, UniProt Q15303). Briefly: Binding affinity to ERBB4 (unknown origin) assessed as dissociation constant by KINOMEscan analysis.
Series [3] has as its target Epidermal growth factor receptor (Homo sapiens, UniProt P00533). Briefly: Binding affinity to EGFR (unknown origin) assessed as dissociation constant by KINOMEscan analysis.
In series [4] the target is Tyrosine-protein kinase Blk (Homo sapiens, UniProt P51451). Briefly: Binding affinity to BLK (unknown origin) assessed as dissociation constant by KINOMEscan analysis.
The target in series [5] is T1, Tyrosine-protein kinase JAK3 (Homo sapiens, UniProt P52333).
T1 sequence (P52333 whole entry): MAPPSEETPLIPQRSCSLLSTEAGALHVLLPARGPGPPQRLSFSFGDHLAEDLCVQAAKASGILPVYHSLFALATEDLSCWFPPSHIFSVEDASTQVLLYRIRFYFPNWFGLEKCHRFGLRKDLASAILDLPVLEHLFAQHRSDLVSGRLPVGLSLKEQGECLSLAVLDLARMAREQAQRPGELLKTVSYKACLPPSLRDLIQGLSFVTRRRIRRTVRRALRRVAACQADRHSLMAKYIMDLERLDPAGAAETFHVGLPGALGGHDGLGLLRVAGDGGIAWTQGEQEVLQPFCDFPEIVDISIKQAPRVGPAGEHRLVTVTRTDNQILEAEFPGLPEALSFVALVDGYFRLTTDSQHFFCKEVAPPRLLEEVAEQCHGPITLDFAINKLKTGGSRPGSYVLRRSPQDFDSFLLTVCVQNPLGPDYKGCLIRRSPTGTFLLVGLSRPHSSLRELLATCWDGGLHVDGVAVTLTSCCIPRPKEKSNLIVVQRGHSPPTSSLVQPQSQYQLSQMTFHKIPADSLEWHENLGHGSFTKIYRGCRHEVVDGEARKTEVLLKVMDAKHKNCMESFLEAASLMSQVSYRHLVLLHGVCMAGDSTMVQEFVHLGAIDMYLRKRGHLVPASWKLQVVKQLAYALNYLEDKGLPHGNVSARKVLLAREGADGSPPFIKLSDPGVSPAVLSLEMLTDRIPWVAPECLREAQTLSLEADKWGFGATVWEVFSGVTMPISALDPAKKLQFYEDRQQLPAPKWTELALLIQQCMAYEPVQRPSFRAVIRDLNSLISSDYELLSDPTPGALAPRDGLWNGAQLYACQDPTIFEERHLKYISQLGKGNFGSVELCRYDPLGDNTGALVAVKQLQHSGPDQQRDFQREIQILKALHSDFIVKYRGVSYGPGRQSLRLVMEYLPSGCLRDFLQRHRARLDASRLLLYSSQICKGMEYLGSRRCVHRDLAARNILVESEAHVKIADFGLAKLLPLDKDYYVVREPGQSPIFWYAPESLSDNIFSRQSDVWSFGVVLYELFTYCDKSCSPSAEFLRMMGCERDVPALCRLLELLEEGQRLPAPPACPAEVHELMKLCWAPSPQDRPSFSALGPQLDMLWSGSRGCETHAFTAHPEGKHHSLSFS
Briefly: Binding affinity to JAK3 (unknown origin) assessed as dissociation constant by KINOMEscan analysis.

The target of series [6] is T2, Tyrosine-protein kinase Tec (Homo sapiens, UniProt P42680).
T2 sequence (P42680 whole entry): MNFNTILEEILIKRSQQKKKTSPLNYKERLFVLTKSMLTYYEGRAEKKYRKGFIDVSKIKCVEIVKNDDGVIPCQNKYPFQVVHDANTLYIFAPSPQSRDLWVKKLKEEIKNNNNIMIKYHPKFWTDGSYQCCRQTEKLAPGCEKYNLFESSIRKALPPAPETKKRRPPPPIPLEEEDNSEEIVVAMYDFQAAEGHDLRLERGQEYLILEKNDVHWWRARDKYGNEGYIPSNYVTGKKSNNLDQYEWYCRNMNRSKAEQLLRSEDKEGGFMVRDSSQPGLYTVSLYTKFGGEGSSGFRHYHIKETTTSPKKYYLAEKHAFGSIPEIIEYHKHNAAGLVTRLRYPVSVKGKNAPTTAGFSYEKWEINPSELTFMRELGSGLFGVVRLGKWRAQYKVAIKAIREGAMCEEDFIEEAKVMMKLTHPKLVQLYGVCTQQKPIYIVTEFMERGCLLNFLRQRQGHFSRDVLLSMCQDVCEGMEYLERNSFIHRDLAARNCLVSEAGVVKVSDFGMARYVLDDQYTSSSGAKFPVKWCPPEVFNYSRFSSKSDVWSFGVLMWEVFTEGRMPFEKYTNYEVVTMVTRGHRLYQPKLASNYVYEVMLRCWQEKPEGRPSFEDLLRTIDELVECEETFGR
Kind of series: Binding affinity to TEC (unknown origin) assessed as dissociation constant by KINOMEscan analysis.

The target of series [7] is T3, Tyrosine-protein kinase TXK (Homo sapiens, UniProt P42681).
T3 sequence (P42681 whole entry): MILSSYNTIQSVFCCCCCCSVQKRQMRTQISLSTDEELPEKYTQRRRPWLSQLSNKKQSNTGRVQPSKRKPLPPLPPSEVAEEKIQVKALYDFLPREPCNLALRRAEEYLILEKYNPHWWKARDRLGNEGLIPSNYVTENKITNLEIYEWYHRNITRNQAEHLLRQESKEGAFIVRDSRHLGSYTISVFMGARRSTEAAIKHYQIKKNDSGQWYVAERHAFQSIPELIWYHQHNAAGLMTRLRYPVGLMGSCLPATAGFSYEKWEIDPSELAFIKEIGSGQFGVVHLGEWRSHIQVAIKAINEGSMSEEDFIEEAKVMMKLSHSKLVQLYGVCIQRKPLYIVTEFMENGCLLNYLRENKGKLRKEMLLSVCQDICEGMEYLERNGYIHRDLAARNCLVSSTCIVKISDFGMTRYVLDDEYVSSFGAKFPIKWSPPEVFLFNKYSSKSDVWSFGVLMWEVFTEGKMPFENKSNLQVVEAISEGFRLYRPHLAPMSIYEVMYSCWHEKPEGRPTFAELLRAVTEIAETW
Briefly: Binding affinity to TXK (unknown origin) assessed as dissociation constant by KINOMEscan analysis.

Series [8] deals with T4, Tyrosine-protein kinase ITK/TSK (Homo sapiens, UniProt Q08881).
T4 sequence (Q08881 whole entry): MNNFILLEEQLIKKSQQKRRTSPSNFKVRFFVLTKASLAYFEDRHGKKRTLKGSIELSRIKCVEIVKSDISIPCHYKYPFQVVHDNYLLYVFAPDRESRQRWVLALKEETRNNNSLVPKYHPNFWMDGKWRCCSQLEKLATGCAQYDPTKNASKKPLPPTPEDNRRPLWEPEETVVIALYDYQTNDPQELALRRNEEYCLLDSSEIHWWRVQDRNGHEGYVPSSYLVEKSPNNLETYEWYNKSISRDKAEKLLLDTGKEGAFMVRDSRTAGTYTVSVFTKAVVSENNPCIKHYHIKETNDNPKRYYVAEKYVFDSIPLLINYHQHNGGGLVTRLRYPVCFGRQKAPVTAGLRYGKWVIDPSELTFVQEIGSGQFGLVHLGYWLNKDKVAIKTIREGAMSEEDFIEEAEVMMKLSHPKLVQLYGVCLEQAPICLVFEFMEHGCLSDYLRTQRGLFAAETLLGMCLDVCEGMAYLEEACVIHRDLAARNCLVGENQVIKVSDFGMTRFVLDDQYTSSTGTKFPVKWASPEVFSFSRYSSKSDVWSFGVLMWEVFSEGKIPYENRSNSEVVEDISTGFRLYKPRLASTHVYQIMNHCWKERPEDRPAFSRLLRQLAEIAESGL
Briefly: Binding affinity to ITK (unknown origin) assessed as dissociation constant by KINOMEscan analysis.

A short description of series [9]: Metabolic stability in rat liver microsomes assessed as intrinsic clearance. It is filed as ADME, Microsome. The following applies: read-out: CLH. (In general: Liver microsomes are a subcellular fraction often used to study metabolism.)
A short description of series [10]: Metabolic stability in human liver microsomes assessed as intrinsic clearance. Type of series: ADME, Microsome. The following applies: read-out: CLH.
Series [11] can be described thus: Plasma protein binding in human assessed as unbound fraction by rapid equilibrium dialysis method. It is filed as ADME, cell-free. For orientation: In equilibrium dialysis only unbound substance equilibrates across the membrane.
Series [12] addresses Tyrosine-protein kinase BTK (Homo sapiens, UniProt Q06187). Kind of series: Inhibition of BTK (unknown origin).
Series [13] can be described thus: Plasma protein binding in rat assessed as unbound fraction by rapid equilibrium dialysis method. Type of series: ADME, cell-free.
A short description of series [14]: Inhibition of CD69 expression on CD19 positive B cells in anti-IgD stimulated human whole blood. Type of series: functional, tissue-based. The conditions noted are these: CD19 positive B cell.
The nature of series [15]: Clearance in iv dosed Sprague-Dawley rat. Type of series: ADME, organism-based. The conditions noted are these: in vivo.

Tyrosine-protein kinase Blk, sequence (P51451 whole entry): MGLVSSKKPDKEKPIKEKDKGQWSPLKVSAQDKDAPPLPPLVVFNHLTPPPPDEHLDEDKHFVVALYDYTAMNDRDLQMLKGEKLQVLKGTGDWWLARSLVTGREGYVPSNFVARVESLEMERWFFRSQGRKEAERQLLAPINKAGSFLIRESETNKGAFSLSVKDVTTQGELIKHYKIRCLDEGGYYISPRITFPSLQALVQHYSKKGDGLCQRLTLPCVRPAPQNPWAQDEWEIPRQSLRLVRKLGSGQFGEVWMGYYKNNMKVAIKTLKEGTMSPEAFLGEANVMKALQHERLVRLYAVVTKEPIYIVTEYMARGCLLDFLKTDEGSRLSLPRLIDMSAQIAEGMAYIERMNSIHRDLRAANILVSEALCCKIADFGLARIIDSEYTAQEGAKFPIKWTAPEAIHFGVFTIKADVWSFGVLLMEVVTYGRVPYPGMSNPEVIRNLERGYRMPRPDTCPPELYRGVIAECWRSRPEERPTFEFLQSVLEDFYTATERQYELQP
Receptor tyrosine-protein kinase erbB-2, sequence (P04626 whole entry): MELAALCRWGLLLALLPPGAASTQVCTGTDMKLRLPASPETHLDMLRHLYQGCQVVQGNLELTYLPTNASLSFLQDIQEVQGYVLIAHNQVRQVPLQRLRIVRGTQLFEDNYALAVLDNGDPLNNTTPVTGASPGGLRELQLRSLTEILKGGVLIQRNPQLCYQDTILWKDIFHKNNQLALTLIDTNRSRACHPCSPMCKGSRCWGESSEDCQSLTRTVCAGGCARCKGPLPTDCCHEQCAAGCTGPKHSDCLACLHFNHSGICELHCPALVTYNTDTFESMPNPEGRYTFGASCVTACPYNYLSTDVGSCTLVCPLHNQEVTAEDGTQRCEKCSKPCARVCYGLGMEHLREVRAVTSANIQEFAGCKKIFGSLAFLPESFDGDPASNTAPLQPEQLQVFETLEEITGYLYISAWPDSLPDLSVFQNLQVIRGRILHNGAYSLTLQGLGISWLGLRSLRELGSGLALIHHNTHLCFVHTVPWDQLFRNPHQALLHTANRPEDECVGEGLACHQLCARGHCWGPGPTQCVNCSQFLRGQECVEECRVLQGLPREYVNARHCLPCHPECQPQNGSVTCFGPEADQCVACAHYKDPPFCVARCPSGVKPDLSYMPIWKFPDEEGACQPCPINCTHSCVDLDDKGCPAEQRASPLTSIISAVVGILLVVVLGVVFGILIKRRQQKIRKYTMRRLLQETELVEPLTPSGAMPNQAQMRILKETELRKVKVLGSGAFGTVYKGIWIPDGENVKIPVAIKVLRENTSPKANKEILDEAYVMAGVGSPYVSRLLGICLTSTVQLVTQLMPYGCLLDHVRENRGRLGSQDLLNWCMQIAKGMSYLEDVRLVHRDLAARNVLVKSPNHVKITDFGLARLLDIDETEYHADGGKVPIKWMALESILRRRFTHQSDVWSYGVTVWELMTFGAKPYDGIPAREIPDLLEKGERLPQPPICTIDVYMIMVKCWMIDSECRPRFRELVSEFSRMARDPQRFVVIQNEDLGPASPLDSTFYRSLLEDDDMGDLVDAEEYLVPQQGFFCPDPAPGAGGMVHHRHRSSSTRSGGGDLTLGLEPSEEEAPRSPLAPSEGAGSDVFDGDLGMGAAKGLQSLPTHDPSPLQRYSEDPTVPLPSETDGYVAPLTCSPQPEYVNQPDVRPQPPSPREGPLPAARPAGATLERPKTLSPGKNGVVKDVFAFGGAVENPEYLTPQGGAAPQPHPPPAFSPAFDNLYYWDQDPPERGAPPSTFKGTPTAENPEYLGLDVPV
Tyrosine-protein kinase BTK, sequence (Q06187 whole entry): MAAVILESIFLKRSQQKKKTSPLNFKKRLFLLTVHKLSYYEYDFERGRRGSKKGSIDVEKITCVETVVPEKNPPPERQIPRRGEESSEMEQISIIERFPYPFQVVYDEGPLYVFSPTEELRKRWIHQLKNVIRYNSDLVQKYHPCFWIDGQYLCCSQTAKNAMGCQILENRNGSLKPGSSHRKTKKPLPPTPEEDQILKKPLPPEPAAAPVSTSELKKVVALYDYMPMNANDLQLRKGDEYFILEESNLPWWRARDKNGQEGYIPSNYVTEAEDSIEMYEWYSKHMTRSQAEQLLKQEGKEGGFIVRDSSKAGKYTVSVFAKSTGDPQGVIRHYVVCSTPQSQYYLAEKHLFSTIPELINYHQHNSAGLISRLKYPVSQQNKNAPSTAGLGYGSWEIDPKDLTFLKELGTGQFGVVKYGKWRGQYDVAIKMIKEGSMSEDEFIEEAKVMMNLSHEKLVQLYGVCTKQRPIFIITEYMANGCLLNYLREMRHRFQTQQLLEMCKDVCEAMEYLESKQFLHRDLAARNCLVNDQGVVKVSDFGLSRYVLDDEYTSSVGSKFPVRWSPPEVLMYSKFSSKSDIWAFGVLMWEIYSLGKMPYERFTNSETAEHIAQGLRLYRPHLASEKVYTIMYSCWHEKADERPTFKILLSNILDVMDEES
Epidermal growth factor receptor, sequence (P00533 whole entry): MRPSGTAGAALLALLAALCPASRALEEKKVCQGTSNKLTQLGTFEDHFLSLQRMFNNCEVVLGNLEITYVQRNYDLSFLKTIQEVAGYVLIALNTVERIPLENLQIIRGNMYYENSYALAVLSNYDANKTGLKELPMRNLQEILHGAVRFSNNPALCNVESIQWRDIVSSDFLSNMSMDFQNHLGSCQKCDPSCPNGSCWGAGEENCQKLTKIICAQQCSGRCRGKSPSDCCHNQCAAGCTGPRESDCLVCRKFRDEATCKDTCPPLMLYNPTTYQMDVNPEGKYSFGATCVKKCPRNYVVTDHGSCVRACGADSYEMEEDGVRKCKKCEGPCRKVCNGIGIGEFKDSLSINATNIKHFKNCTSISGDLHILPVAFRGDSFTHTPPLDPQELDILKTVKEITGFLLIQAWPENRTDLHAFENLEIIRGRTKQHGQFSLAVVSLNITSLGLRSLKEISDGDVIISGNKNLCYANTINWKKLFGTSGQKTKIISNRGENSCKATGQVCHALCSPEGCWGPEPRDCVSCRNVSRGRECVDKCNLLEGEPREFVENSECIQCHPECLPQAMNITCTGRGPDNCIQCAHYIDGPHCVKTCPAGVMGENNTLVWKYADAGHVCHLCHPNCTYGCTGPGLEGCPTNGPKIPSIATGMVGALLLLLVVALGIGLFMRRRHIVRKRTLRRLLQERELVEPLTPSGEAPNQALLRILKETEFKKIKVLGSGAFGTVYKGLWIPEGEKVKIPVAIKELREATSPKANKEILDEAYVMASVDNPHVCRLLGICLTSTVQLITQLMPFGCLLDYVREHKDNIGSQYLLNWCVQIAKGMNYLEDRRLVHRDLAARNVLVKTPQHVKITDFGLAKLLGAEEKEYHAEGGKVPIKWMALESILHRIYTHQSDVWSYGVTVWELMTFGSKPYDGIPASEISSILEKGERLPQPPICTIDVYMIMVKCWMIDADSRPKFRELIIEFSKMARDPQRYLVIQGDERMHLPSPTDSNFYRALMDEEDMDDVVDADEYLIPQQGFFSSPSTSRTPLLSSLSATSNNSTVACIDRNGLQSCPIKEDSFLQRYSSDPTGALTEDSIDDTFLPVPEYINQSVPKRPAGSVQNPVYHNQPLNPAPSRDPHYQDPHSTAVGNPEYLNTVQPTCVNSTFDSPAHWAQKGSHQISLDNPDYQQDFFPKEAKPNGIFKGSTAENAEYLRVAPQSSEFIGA
Receptor tyrosine-protein kinase erbB-4, sequence (Q15303 whole entry): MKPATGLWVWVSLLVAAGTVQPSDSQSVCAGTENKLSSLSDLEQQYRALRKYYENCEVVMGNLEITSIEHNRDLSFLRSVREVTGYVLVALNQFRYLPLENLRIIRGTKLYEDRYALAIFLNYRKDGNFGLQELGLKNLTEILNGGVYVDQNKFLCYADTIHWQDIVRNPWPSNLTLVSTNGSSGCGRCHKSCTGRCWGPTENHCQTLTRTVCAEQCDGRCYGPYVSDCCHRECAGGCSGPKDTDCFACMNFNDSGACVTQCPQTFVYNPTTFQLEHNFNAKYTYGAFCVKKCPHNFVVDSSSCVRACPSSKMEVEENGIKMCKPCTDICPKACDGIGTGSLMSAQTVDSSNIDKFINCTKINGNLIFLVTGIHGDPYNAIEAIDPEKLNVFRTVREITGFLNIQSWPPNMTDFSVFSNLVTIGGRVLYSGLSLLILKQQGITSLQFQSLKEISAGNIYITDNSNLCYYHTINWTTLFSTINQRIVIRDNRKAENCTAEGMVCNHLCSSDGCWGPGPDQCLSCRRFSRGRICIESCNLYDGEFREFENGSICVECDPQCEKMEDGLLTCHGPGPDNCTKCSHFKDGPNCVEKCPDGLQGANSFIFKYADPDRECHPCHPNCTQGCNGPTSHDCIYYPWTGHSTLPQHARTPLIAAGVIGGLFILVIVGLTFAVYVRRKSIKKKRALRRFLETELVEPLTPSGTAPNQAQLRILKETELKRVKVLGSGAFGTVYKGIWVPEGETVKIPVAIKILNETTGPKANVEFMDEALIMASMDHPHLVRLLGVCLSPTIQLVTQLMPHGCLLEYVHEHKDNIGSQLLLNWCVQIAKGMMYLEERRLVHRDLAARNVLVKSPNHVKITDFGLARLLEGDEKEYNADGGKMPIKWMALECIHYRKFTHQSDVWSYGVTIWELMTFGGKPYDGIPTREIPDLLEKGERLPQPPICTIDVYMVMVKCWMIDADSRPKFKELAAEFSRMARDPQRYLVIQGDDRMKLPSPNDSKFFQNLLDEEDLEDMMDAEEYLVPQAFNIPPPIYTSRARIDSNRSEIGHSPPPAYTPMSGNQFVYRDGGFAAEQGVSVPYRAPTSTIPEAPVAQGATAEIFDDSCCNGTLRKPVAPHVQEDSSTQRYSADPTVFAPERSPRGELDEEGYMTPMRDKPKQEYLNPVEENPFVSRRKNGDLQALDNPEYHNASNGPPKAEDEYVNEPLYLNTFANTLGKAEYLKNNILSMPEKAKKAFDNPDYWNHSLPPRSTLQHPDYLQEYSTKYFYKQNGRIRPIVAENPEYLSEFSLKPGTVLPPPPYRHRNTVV

As to `C[C@@H]1CN(C2COC2)CCN1c1ccc(Nc2cc(-c3ccnc(N4CCn5c(cc6c5CC(C)(C)C6)C4=O)c3CO)cn(C)c2=O)nc1`, the Kd in series [1] was found to be 30 µM; in series [2] it was 30 µM; in series [3], 30 µM; in [4] it was 4.1 µM; in series [5], 23 µM; in series [6], 210 nM. For the same compound, the dissociation constant (Kd) in series [7] worked out at 2 µM; in [8] it was 190 nM.

As to `C=CC(=O)N(C)CCOc1cncnc1-c1ccc(CN2CCN(CC(C)C)CC2=O)c(C)c1`, the CLint scaled in [9] turned out to be 2000 mL/min/kg; in series [10], 444 mL/min/kg. Moreover, the unbound share (fraction unbound) in [11] turned out to be 0.24; in series [13], 0.07. In addition, the values for the concentration for half-maximal inhibition (IC50) in [12] and in [14] were 0.83 nM and 130 nM, respectively.

In turn, `C=CC(=O)N(C)CCOc1c(N)ncnc1-c1cc(F)cc(NC(=O)c2ccc(C3CC3)cc2F)c1C` [REMIBRUTINIB] had a clearance in series [15] of 214 mL/min/kg. Moreover, the CLint scaled in series [9] was determined as 97 mL/min/kg; in series [10], 80 mL/min/kg. Besides, the results for the Kd in series [4] and in [7] were 30 µM and 17 µM, respectively. Inhibition in [14] was half-maximal at 36 nM (IC50).
